The source of these data is patent publication US10940139B2, “Compounds that interact with the Ras superfamily for the treatment of cancers, inflammatory diseases, rasopathies, and fibrotic disease” (Shy Therapeutics LLC, priority 2017, dated 2021).

In test [1] the test system is MIA-PACA2 pancreatic cancer cell lines. The test can be described thus: Cell proliferation assay, alternate assay conditions (DAPI fluorescence). The format is cell-based. The settings on record: Homo sapiens, MIA PaCa-2; for inhibition at 10 µM: * = tested at 10 μM, alternate conditions, MIA-PACA2; for IC50: MIA-PACA2, same assay as the % inhibition (alternate conditions). How it is done:
Cell lines: Tumor-derived pancreatic cancer cell lines MIA-PACA2 were purchased from ATCC and grown in complete DMEM-High Glucose medium supplemented with penicillin (100 U/mL), streptomycin (100 μg/mL), and 10% heat-inactivated FBS at 37° C. in a humidified incubator with 5% CO2.
Method: Cells are plated at 4000 cells/well density in 96-wells plate. The next day tested small molecules are added to the cells in the final concentration of 10 μM in the presence of 0.3% DMSO and 10% FBS. After small molecules addition, cells are incubated for 4 days at 37° C. in a humidified incubator with 5% CO2. For IC50 value determination, serial dilutions of compounds were added to cells under the same conditions.
Assay: At the end of the incubation period, cell cultures are fixed with a 50-50 mixture (v/v) acetone-methanol for 10 minutes at −20° C., followed by rehydration in PBS for 10 minutes at room temperature. After rehydration, cells are stained with DAPI (1 μg/ml) in PBS for 10 minutes at room temperature, followed by 3 washes with PBS. After staining, DAPI fluorescence is recorded (358 nm excitation/461 nm emission) with the 96-well plate reader Molecular Devices Spectramax M3; degree of small mole-cule-dependent proliferation inhibition is calculated from raw data assuming No Serum cells value as 100%.

Test [2] shares this test system. Description: Cell proliferation assay (CellTiter 96 AQueous One). The format is cell-based. To be noted: Homo sapiens, MIA PaCa-2; for IC50: MIA-PACA2, compound tested under both conditions, which assay gave the IC50 is not stated; for inhibition at 30 µM: MIA-PACA2.
The target in test [3] is GTP binding domain of Ras. The settings on record: literature, kinetic and filter binding measurements with radiolabeled GDP and GTP; cited from earlier work.

Consider `Oc1nc(-c2ccccn2)nc2c(-c3cccc(C(F)(F)F)c3)csc12` [drawing 1749], for which, in test [1], the inhibition at 10 µM was 76 to 100%. Also, in test [2], the IC50 lay in the range of 100 to 500 nM and the inhibition at 30 µM lay in the range of 76 to 100%.
For the compound `Nc1nc2c(ncn2[C@@H]2O[C@H](COP(=O)(O)OP(=O)(O)O)[C@@H](O)[C@H]2O)c(=O)[nH]1` [GDP], the “affinity for the GTP binding domain of Ras” value in test [3] is “single to double digit picomolar”.
The compound `Oc1nc(-c2ccccn2)nc2c(-c3ccccn3)csc12` [drawing 1772] gave an inhibition at 10 µM in test [1] of 76 to 100%. In test [2], this compound gave an IC50 of more than 1000 nM and an inhibition at 30 µM of 76 to 100%.
`CC(C)COc1ccc(-c2csc3c(O)nc(-c4ccccn4)nc23)cn1` [drawing 1753] yielded an inhibition at 10 µM in test [1] of 76 to 100%. In test [2], the IC50 was in the range of 501 to 1000 nM and the inhibition at 30 µM was in the range of 76 to 100%.
On to `COCCNc1nc(-c2nccn2C)nc2sc(-c3cccc(OC)c3)c(-c3ccccc3)c12` [drawing 1888], for which the inhibition at 10 µM in test [1] lay in the range of 76 to 100%.
In the case of `COCCNc1nc(-c2cn(C)cn2)nc2sc(-c3ccccc3)c(-c3ccccc3)c12` [drawing 1885], in test [1], the inhibition at 10 µM was in the range of 76 to 100% and the IC50 is more than 1000 nM.
The corresponding values for `COCCCNc1nc(-c2nccn2C)nc2sc(-c3ccccc3)c(-c3ccccc3)c12` [drawing 1872] are 76 to 100% and 501 to 1000 nM.
As for `Cc1ccc(-c2cc3nc(-c4ccccn4)nc(O)c3s2)cc1` [drawing 1857], the inhibition at 10 µM in test [1] was in the range of 76 to 100%.
In test [1], `O=C(NCCc1ccncn1)c1csc2nc(-c3ccccn3)nc(N3CCOCC3)c12` [drawing 1796] returned an inhibition at 10 µM of 1 to 25%.
Still for that read-out and setting: with `COc1ccc(-c2cc3nc(-c4ccccn4)nc(O)c3s2)cc1` [drawing 1865] the figure was 76 to 100%; with `Cn1ccnc1-c1nc(O)c2scc(-c3ccccc3Cl)c2n1` [drawing 1917], 76 to 100%.
Consider `Cn1cnc(-c2nc(O)c3c(-c4ccccc4)c(-c4ccncc4)sc3n2)c1` [drawing 1830], for which the inhibition at 10 µM in test [1] fell in the range of 76 to 100%.
In the case of `Cc1c(-c2csc3c(O)nc(-c4ccccn4)nc23)cnn1C` [drawing 1802], in test [1], the inhibition at 10 µM was in the range of 76 to 100%.
Consider `CC(C)COc1ccc(-c2c(-c3ccccc3)sc3c(O)nc(-c4nccn4C)nc23)cn1` [drawing 1889], for which, in test [1], the inhibition at 10 µM is 76 to 100% and the IC50 fell in the range of 100 to 500 nM.
Consider `Oc1nc(-c2ccccn2)nc2cc(-c3ccccc3Cl)sc12` [drawing 1858], for which the inhibition at 10 µM in test [1] lay within 76 to 100%.
On the same count and under the same terms, then `Oc1nc(-c2ccccn2)nc2cc(-c3ccc(-c4ccccc4)cc3)sc12` [drawing 1861], with 76 to 100%; and `Cc1ccc(-c2csc3c(O)nc(-c4ccccn4)nc23)cc1` [drawing 1862], with 76 to 100%.
For `CC(C)COc1ccc(-c2csc3c(O)nc(-c4cn(C)cn4)nc23)cn1` [drawing 1907], in test [1], the inhibition at 10 µM lay in the range of 76 to 100%.
In test [1], `COCCNc1nc(-c2nccn2C)nc2sc(-c3ccc(OC)cc3)c(-c3ccccc3)c12` [drawing 1899] gave an inhibition at 10 µM of 76 to 100% and an IC50 of 100 to 500 nM.
For the compound `Cc1sc2c(O)nc(-c3ccccn3)nc2c1Br` [drawing 1824], in test [1], the inhibition at 10 µM was 76 to 100%.
`COc1cnc(-c2cn(C)cn2)nc1O` [drawing 1814] had an inhibition at 10 µM in test [1] of 1 to 25%.
`Cc1sc2c(O)nc(-c3nccn3C)nc2c1-c1ccc(F)cc1F` [drawing 1923] displayed an inhibition at 10 µM in test [1] of 76 to 100%.
In the case of `Oc1nc(-c2ccncn2)nc2c(-c3cccc(C(F)(F)F)c3)csc12` [drawing 1909], in test [1], the inhibition at 10 µM was in the range of 76 to 100% and the IC50 was more than 1000 nM.
`CC(C)Oc1ccc(-c2c(-c3ccccc3)sc3c(O)nc(-c4nccn4C)nc23)cc1F` [drawing 1913] returned an inhibition at 10 µM in test [1] of 76 to 100%.
On the same count and under the same terms, then `Oc1nc(-c2ccccn2)nc2c(C3CCCCC3)csc12` [drawing 1811], with 76 to 100%; and `COCCNc1nc(-c2cn(C)cn2)nc2sc(C)c(-c3ccccc3)c12` [drawing 1887], with 76 to 100%.
In test [1], `COCCN(C)c1nc(-c2nccn2C)nc2sc(-c3ccccc3)c(-c3ccccc3)c12` [drawing 1868] displayed an inhibition at 10 µM of 76 to 100% and an IC50 of more than 1000 nM.
`COCc1ccc(-c2csc3c(O)nc(-c4ccccn4)nc23)cc1F` [drawing 1722] displayed an inhibition at 10 µM in test [1] of 76 to 100%. In test [2], this compound displayed an IC50 of less than 100 nM and an inhibition at 30 µM of 76 to 100%.
With `Cn1ccnc1-c1nc(O)c2scc(-c3cccc(OC(F)(F)F)c3)c2n1` [drawing 1905], in test [1], the inhibition at 10 µM lay in the range of 76 to 100% and the IC50 is 100 to 500 nM.
The like results for `Cc1sc2c(O)nc(-c3nccn3C)nc2c1-c1ccccc1Cl` [drawing 1904] were, in that order, 76 to 100% and 100 to 500 nM.
The corresponding values for `COc1ccc(-c2c(-c3ccccc3)sc3c(O)nc(-c4nccn4C)nc23)cn1` [drawing 1895] are 76 to 100% and 501 to 1000 nM.
`Nc1nc(O)c2sc(-c3cccc(C(=O)NCc4cccc(O)n4)c3)cc2n1` [drawing 1848]: in test [1], the inhibition at 10 µM was in the range of 1 to 25%.
The compound `CC(CO)Nc1nc(-c2nccn2C)nc2sc(-c3ccccc3)c(-c3ccccc3)c12` (stereo not drawn) [drawing 1880] registered an inhibition at 10 µM in test [1] of 76 to 100%.
In the case of `COCCNc1nc(-c2nccn2C)nc2sc(-c3ccccc3)c(-c3ccccc3Cl)c12` [drawing 1882], in test [1], the inhibition at 10 µM is 76 to 100% and the IC50 was more than 1000 nM.
The compound `Oc1nc(-c2ccccn2)nc2cc(-c3ccccc3)sc12` [drawing 1864] registered an inhibition at 10 µM in test [1] of 76 to 100%.
On the same count and under the same terms, then `CCN(CC)CCOc1nc(-c2nccn2C)nc2sc(-c3ccccc3)c(-c3ccccc3)c12` [drawing 1875], with 76 to 100%.
`COCCNc1nc(-c2nccn2C)nc2sc(-c3ccccc3)c(-c3ccncc3)c12` [drawing 1898] gave an inhibition at 10 µM in test [1] of 76 to 100%.
On to `Nc1nc(O)c2sc(-c3cccc(C(=O)NCc4ncc[nH]4)c3)cc2n1` [drawing 1847], for which the inhibition at 10 µM in test [1] lay within 1 to 25%.
The same measure, in the same setting: with `Cc1sc2c(O)nc(-c3ccccn3)nc2c1C(=O)N1CCN(c2ccccc2)CC1` [drawing 1807] the figure was 76 to 100%.
